Measured values published in patent US4880804A (E. I. Du Pont De Nemours and Company, priority 1988, dated 1989).

Tests used:
AII receptor = experiment: Angiotensin II receptor binding, displacement of 3H-AII; conditions: read-out: Angiotensin II Receptor Binding IC50; rat adrenal cortical microsomes, 2 nM 3H-AII, 1 hour, room temperature
Description: The reaction mixture contained rat adrenal cortical microsomes (source of AII receptor) in Tris buffer and 2 nM of ^3 H-AII with or without potential AII antagonist. This mixture was incubated for 1 hour at room temperature and the reaction was subsequently terminated by rapid filtration and rinsing through glass microfibre filter. Receptor-bound ^3 H-AII trapped in filter was quantitated by scintillation counting.

renal hypertensive rats = experiment: Antihypertensive effects in renal hypertensive rats; type: in vivo, rat; conditions: class symbol
Description: This procedure increases blood pressure by increasing renin production with consequent elevation of AII levels. Compounds are administered orally and/or intravenously via a cannula in the jugular vein. Arterial blood pressure is continuously measured directly through a cartoid artery cannula and recorded using a pressure transducer and a polygraph. Blood pressure levels after treatment are compared to pretreatment levels to determine the antihypertensive effects of the compounds (See Table 4).

AII [1] = conditions: cited from earlier work
AII [2] = conditions: cited from earlier work; remark: listed apart in the source

Row | SMILES | IC50 (AII receptor) | Antihypertensive Effects in Renal Hypertensive Rats, Intravenous Activity (renal hypertensive rats) | also measured
1 | CCOC(=O)C=Cc1nc2ccccc2n1Cc1ccc(NC(=O)c2ccccc2NS(=O)(=O)C(F)(F)F)cc1 [Example 5] | 29 µM | – | –
2 | CNCC(=O)N[C@@H](CCCN=C(N)N)C(=O)N[C@H](C(=O)N[C@@H](Cc1ccc(O)cc1)C(=O)N[C@H](C(=O)N[C@@H](Cc1cnc[nH]1)C(=O)N1CCC[C@H]1C(=O)N[C@@H](C)C(=O)O)C(C)C)C(C)C [Saralasin] | – | – | Lowering of arterial pressure (AII [1]; elevated pressure dependent on circulating AII): lower arterial pressure in mammals and man when the (elevated) pressure is dependent on circulating AII; Oral effectiveness (AII [1]; oral): oral doses being ineffective; Duration of pharmacological effects (AII [1]; parenteral administration): relatively short-lasting; Pressor effects (agonistic character) (AII [1]; pressure not sustained by AII): generally elicits pressor effects when the pressure is not sustained by AII; Antagonism of the actions of AII (AII [2]; in words): one of the most potent competitive antagonists of the actions of AII; Block of the effects of AII on blood pressure (AII [2]; pithed rats): blocks the effects of AII on the blood pressure of pithed rats
3 | CCCCc1nc2ccc(Cl)cc2n1Cc1ccc(-c2ccccc2C(=O)O)cc1 [Example 33, 2-Butyl-1-[(2'-carboxybiphenyl-4-yl)methyl]-6-chlorobenzimidazole] | 5 µM | + (Significant decrease in blood pressure at 10 mg/kg or less.) | Antihypertensive Effects in Renal Hypertensive Rats, Oral Activity (renal hypertensive rats): + (Significant decrease in blood pressure at 100 mg/kg or less.)
4 | COCc1nc2ccc(CO)cc2n1Cc1ccc(-c2ccccc2C(=O)O)cc1 [Example 34] | 6.3 µM | + (Significant decrease in blood pressure at 10 mg/kg or less.) | –
5 | CCCCc1nc2cc(Cl)ccc2n1Cc1ccc(-c2ccccc2C(=O)O)cc1 [Example 38] | 11 µM | + (Significant decrease in blood pressure at 10 mg/kg or less.) | –
6 | CCCCc1nc2ccc(C(=O)O)cc2n1Cc1ccc(-c2ccccc2C(=O)O)cc1 [Example 37] | 5.7 µM | + (Significant decrease in blood pressure at 10 mg/kg or less.) | –
7 | CCOC(=O)C=Cc1nc2ccccc2n1Cc1ccc(NC(=O)c2ccccc2C(=O)O)cc1 [Example 4, 3-[1-(4-(2-Carboxybenzamido)benzyl)benzimidazol-2-yl]propenoic acid, ethyl ester] | 15 µM | – | –
8 | COCc1nc2cc(CO)ccc2n1Cc1ccc(-c2ccccc2C(=O)O)cc1 [Example 35] | 21 µM | + (Significant decrease in blood pressure at 10 mg/kg or less.) | –
9 | CCOC(=O)C(Cc1nc2ccccc2n1Cc1ccc(NC(=O)c2ccccc2C(=O)O)cc1)C(=O)OCC [Example 1, 3-[1-(4-(2-Carboxybenzamido)benzyl)benzimidazol-2-yl]-2-(carboethoxy)propanoic acid, ethyl ester] | 8.3 µM | – | –
10 | CCCCc1nc2cc(C(=O)O)ccc2n1Cc1ccc(-c2ccccc2C(=O)O)cc1 [Example 36] | 2.5 µM | + (Significant decrease in blood pressure at 10 mg/kg or less.) | –

More lines, main results first:

Row | IC50 (AII receptor) | SMILES | Antihypertensive Effects in Renal Hypertensive Rats, Intravenous Activity (renal hypertensive rats) | also measured
11 | 4.4 µM | CCCC=Cc1nc2ccccc2n1Cc1ccc(NC(=O)c2ccccc2C(=O)O)cc1 [Example 3, 1-[4-(2-Carboxybenzamido)benzyl]-2-(1-pentenyl)benzimidazole] | – | –
12 | 1.4 µM | CCCCc1nc2ccc(C=O)cc2n1Cc1ccc(-c2ccccc2C(=O)O)cc1 [Example 31] | + (Significant decrease in blood pressure at 10 mg/kg or less.) | –
13 | 0.5 µM | CCC=Cc1nc2ccc(CO)cc2n1Cc1ccc(-c2ccccc2C(=O)O)cc1 [Example 32, 2-(1-Butenyl)-6-hydroxymethyl-1-[(2'-carboxybiphenyl-4-yl)methyl]benzimidazole] | + (Significant decrease in blood pressure at 10 mg/kg or less.) | Antihypertensive Effects in Renal Hypertensive Rats, Oral Activity (renal hypertensive rats): + (Significant decrease in blood pressure at 100 mg/kg or less.)
14 | 0.22 µM | CCCCc1nc2ccc(CO)cc2n1Cc1ccc(-c2ccccc2C(=O)O)cc1 [Example 27, 2-Butyl-1-[(2'-Carboxybiphenyl-4-yl)methyl]-6-hydroxymethylbenzimidazole] | + (Significant decrease in blood pressure at 10 mg/kg or less.) | Antihypertensive Effects in Renal Hypertensive Rats, Oral Activity (renal hypertensive rats): + (Significant decrease in blood pressure at 100 mg/kg or less.)
15 | 2.8 µM | CCOC(=O)CCc1nc2ccccc2n1Cc1ccc(NC(=O)c2ccccc2NS(=O)(=O)C(F)(F)F)cc1 [Example 6] | – | –
16 | 0.37 µM | CCCCc1nc2cc(CO)ccc2n1Cc1ccc(-c2ccccc2C(=O)O)cc1 [Example 28, 2-Butyl-1-[(2'-carboxybiphenyl-4-yl)methyl]-5-hydroxymethylbenzimidazole] | + (Significant decrease in blood pressure at 10 mg/kg or less.) | –
17 | 0.92 µM | CCCCc1nc2ccc(OC)cc2n1Cc1ccc(-c2ccccc2C(=O)O)cc1 [Example 29, 1-[(2'-Carboxybiphenyl-4-yl)methyl]-2-butyl-6-methoxybenzimidazole] | + (Significant decrease in blood pressure at 10 mg/kg or less.) | –
18 | 2.1 µM | CCOC(=O)CCc1nc2ccccc2n1Cc1ccc(NC(=O)c2ccccc2C(=O)O)cc1 [Example 2, 3-[1-(4-(2-Carboxybenzamido)benzyl)benzimidazole-2-yl]-2-propanoic acid, ethyl ester] | – | –
19 | 1 µM | CCCCc1nc2cc(OC)ccc2n1Cc1ccc(-c2ccccc2C(=O)O)cc1 [Example 30] | + (Significant decrease in blood pressure at 10 mg/kg or less.) | –
